Each compound was assayed against T1, Orexin/Hypocretin receptor type 1 (Rattus norvegicus, UniProt P56718) (assay: Radioligand Binding Assay: Compound potency can be assessed by a radioligand binding assay (described in Bergman et. al. Bioorg. Med. Chem. Lett. 2008, 18, 1425-1430) in which the inhibition constant (Ki) is determined in membranes prepared from CHO cells expressing either the orexin-1 (OX1) or orexin-2 (OX2) receptor.).
T1 sequence (P56718 whole entry): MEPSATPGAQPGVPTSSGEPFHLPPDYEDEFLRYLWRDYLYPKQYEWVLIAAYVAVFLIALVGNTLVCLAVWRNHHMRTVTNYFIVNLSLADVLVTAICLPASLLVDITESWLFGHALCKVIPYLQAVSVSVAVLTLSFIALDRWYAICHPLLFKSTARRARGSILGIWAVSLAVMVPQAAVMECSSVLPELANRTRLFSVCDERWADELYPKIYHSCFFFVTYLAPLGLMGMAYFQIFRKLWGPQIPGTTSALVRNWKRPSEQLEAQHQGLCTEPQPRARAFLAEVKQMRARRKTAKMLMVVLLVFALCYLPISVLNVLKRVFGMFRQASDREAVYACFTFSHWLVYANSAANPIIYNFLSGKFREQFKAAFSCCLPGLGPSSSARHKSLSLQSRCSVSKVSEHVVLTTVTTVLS
Assay type: cell membranes

Ki | SMILES
8.7 nM | Cc1ccc(-n2nccn2)c(C(=O)N2CC(COc3ccc(F)c(C)c3)CCCC2C)c1 (centres undefined)
15 nM | Cc1ccc(-n2nccn2)c(C(=O)N2CCCCC(COc3ccc(F)c(C)c3)C2)c1 (centres undefined)
39 nM | Cc1cc(OCC2COCC(C)N(C(=O)c3ccccc3-n3nccn3)C2)ccc1F (centres undefined)
5.1 nM | Cc1ccc(-n2nccn2)c(C(=O)N2CC(COc3ccc(F)c(C)c3)COCC2C)c1 (centres undefined)

Continued, compound first:

SMILES | Ki
Cc1cc(OCC2CCCC(C)N(C(=O)c3ccccc3-n3nccn3)C2)ccc1F (centres undefined) | 50 nM
Cc1ccc(-c2nccs2)c(C(=O)N2CC(COc3ccc(F)cn3)CCCC2C)c1 (centres undefined) | 73 nM
Cc1ccc(-n2nccn2)c(C(=O)N2CC(COc3ccc(F)cn3)CCCC2C)c1 (centres undefined) | 150 nM
Cc1ccc(-c2ncccn2)c(C(=O)N2CC(COc3ccc(F)cn3)CCCC2C)c1 (centres undefined) | 310 nM
Cc1ccc(-c2ncccn2)c(C(=O)N2CC(COc3ccc(F)c(C)c3)CCCC2C)c1 (centres undefined) | 42 nM
